This is an account of results in patent publication US20070027033A1, “Anti-germination method of tubers or bulbs using eugenol and/or isoeugenol” (priority 2005, published 2007).

The assay deals with germination and nascent sprouts of potatoes. In words: Post-storage application to washed potatoes, in line or by immersion, compared with CIPC and other essential oils. The note with it: emulsifiable liquid solution applied in line to washed potatoes or by immersion in dilute aqueous solution, after storage, at ambient temperature. Type of assay: in vivo, potato.

For `C=CCc1ccc(O)c(OC)c1` [eugenol], the “prevention of germination and burning of nascent sprouts” value is recorded as “more effectively than the CIPC-based formulation or other essential oils”.
